Test results taken from patent publication US20120027687A1, “FATTY ACID PROTEIN KINASE C ACTIVATORS AND ANTICOAGULANT FOR THE TREATMENT OF STROKE” (priority 2010, published 2012).

Legend:
[1] = biological target: protein kinase C; details: (−)-enantiomer; read-out: potency (EC50); cited from earlier work
[2] = biological target: T1, PKCε (Homo sapiens, UniProt Q02156); experiment: PKC assay with purified PKCε; type: biochemical
T1 construct: purchased Calbiochem
T1 sequence (Q02156 1-737): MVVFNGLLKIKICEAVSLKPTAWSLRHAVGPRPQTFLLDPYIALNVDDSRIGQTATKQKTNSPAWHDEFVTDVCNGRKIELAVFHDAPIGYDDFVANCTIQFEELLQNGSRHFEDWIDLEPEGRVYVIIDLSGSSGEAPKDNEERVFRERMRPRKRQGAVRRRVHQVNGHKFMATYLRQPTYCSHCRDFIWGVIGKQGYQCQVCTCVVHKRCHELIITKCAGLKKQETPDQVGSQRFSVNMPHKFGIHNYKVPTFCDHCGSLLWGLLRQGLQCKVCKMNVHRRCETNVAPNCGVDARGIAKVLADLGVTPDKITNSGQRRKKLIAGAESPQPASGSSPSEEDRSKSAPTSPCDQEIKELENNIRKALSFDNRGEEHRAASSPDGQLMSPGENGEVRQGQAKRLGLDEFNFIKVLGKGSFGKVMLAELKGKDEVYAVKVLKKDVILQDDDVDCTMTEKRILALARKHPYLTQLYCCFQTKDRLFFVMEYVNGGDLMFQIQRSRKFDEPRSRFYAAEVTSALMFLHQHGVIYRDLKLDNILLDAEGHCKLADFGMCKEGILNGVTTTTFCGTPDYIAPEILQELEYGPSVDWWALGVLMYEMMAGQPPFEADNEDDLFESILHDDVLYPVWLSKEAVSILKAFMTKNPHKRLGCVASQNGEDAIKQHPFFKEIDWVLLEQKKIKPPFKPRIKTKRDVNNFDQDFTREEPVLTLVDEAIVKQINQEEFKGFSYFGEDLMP
Method: PKC assay. […] 0.5 micro Ci[^γ32P]ATP was added. […] The reaction was stopped by spotting the reaction mixtures on 1×2 cm strips of cellulose phosphate paper (Whatman P81) and immediately washing twice for 1 hr in 0.5% H3PO4. The cellulose phosphate strips were counted in a scintillation counter. In some experiments, phosphatidylserine, diacylglycerol, and/or calcium were removed. […]
To determine their PKC isozyme specificity, fatty acid derivatives were preincubated with purified PKC for five minutes and the PKC activity was measured radiometrically.

[3] = test system: SH-SY5Y neuroblastoma cells; experiment: Cell survival and proliferation (alamar Blue, CyQuant); type: cell-based, human; details: alamar Blue and CyQuant staining
Method: (§1) Aβ Measurement and Cell Viability Assay. Aβ was measured using an Aβ 1-42 human fluorimetric ELISA kit (Invitrogen) according to the manufacturer's instructions. Results were measured in a Biotek Synergy HT microplate reader. AlamarBlue and CyQuant NF (Invitrogen) according to the manufacturer's instructions.

[4] = test system: Aβ; experiment: Aβ production in N2a neuroblastoma cells transfected with human APPSwe/PSID; type: cell-based, mouse; details: 24 hours
Method: (§2) Cell culture. Rat hippocampal H19-7/IGF-IR cells (ATCC, Manassas, Va.) were plated onto poly-L-lysine coated plates and grown at 35° C. in DMEM/10% FCS for several days until about 50% coverage was obtained. The cells were then induced to differentiate into a neuronal phenotype by replacing the medium with 5 ml N2 medium containing 10 ng/ml basic fibroblast growth factor at 39° C. and grown in T-75 flasks at 37° C. Human SH-SY5Y neuroblastoma cells (ATCC) were cultured in 45% F12K/45% MEM/10% FCS. Mouse N2A neuroblastoma cells were cultured in DMEM/10% FCS without glutamine. Rat hippocampal neurons from 18-day-old embryonic Sprague Dawley rat brains were plated on 12- or 96-well plates coated with poly-D-lysine (Sigma-Aldrich, St. Louis, Mo.) in B-27 neurobasal medium containing 0.5 mM glutamine and 25 μM glutamate (Invitrogen, Carlsbad, Calif.) and cultured for three days in the medium without glutamate. The neuronal cells were grown under 5% CO2 in an incubator maintained at 37° C. for 14 days.
as §1
To measure the effects of PKCε activation on Aβ production, mouse neuro2a (N2a) neuroblastoma cells transfected with human APPSwe/PSID were used, which produce large quantities of Aβ. Petanceska et al., J. Neurochem. (1996), vol. 74, pp. 1878-1884. […] With bryostatin, which activates PKC by binding to the diacylglycerol-binding site, the inhibition was biphasic with concentrations of 20 nM or higher producing no net effect. This may be explained by the ability of this class of PKC activators to downregulate PKC when used at high concentrations.

[5] = test system: Aβ; experiment: Degradation of exogenously applied Aβ in SH-SY5Y cells; type: cell-based, human; details: 0.01 μM to 10 μM; 100 nM exogenous Aβ-42; 24 hours
Method: as §2, §1
This concentration of Aβ is too low to produce measurable toxicity or cell death. […]

[6] = test system: Endothelin-converting enzyme (ECE); experiment: Endothelin-converting enzyme (ECE) activity in neuroblastoma cells; type: cell-based, human; details: bryostatin 0.27 nM, BR-101 1 μM, BR-111 1 μM
Method: ECE assay. […] neuroblastoma cells were incubated with bryostatin (0.27 nM), BR-101 (DCP-LA) (1 μM), and BR-111 (DHA-CP6) (1 μM). Endothelin-converting enzyme (ECE) was measured fluorimetrically using the method of Johnson and Ahn (Anal. Biochem. (2000), vol. 286, pp. 112-118). A sample of cell homogenate (20 μl) was incubated in 50 mM MES-KOH, pH 6.0, 0.01% C12E10 (polyoxyethylene-10-lauryl ether), and 15 μM McaBK2 (7-Methoxycoumarin-4-acetyl [Ala7-(2,4-Dinitrophenyl)Lys9]-bradykinin trifluoroacetate salt) (Sigma-Aldrich). After 60 min at 37° C., the reaction was quenched by adding trifluoroacetic acid to 0.5%. The sample was diluted to 1.4 ml with water and the fluorescence was measured at ex=334 nm, em=398 nm.

[7] = test system: TACE; experiment: TACE activity in neuronal cells; type: cell-based, human, mouse; details: SH-SY5Y cells, N2a cells, primary neurons from rat hippocampus
Method: TACE Assay. TACE was measured by incubating 5 μl cell homogenate, 3 μl buffer (50 mM Tris-HCl 7.4 plus 25 mM NaCl plus 4% glycerol), and 1 μl of 100 μM TACE substrate (Aβz-[…]-DPa) (Calbiochem) for 20 min at 37° C. 1.5-ml polypropylene centrifuge tubes. Jin et al., Anal. Biochem. (2002), vol. 302, pp. 269-275. The reaction was stopped by cooling to 4° C. The samples were diluted to 1 ml and the fluorescence was rapidly measured (ex=320 nm, em=420 nm) in a Spex Fluorolog 2 spectrofluorometer.

| Structure (SMILES) | EC50 [1] | concentration needed to activate PKC, times lower than for BR-101 (DCP-LA) [2] | effect on purified PKCε (FIG. 7, FIG. 8) ([2]; preincubated five minutes, radiometric) | effect on cell survival [3] | effect on proliferation [3] | levels of intracellular Aβ ([4]; various concentrations) | levels of secreted Aβ ([4]; various concentrations) | concentration dependence of Aβ inhibition ([4]; fatty acid derivatives up to 10 μM to 100 μM) | reduction of cellular levels of Aβ [5] | ECE activity [6] | TACE activity [7] |
| --- | --- | --- | --- | --- | --- | --- | --- | --- | --- | --- | --- |
| CCCCCCCCc1ccc2c3c(c[nH]c13)C[C@@H](CO)NC(=O)[C@H](C(C)C)N2C [Octylindolactam V] | 29 nM |  |  |  |  |  |  |  |  |  |  |
| CCC1CC1CC1CC1CC1CC1CC1CC1CC1CC1CC1CC1CCC(=O)OC (centres unmarked) [BR-111, methyl-3-(2-((2-((2-((2-((2-((2-ethylcyclopropyl)methyl)cyclopropyl)methyl)cyclopropyl)methyl)-cyclopropyl)methyl)cyclopropyl)methyl)cyclopropyl)propanoate] |  | approximately 100 times | activated | no effect | no effect | markedly reduced | markedly reduced | monotonically increasing inhibition | 45%-63% | sustained increase | small increases |
